Measurements: patent publication US6472348B1, “Pyridone derivatives and herbicides” (Kumiai Chemical Industry Co., Ltd., priority 1996, dated 2002)

Experiments:
Type in all cases: in vivo
[1] = tested on: pale smartweed (Po); experiment: Test Example 2: herbicidal effects by upland field soil treatment; details: 100 g of the active ingredient per 10 ares;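 note: grade of growth control; 5 = at least 90%; 4 = 70 to 90%; 3 = 50 to 70%; 2 = 30 to 50%; 1 = 10 to 30%; 0 = under 10%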
From the text: (§1) (Test on Herbicidal Effects by Upland Field Soil Treatment)

[2] = tested on: rice flatsedge (Ci); experiment: as above; details: 100 g of the active ingredient per 10 ares
From the text: as §1

[3] = tested on: Digitaria ciliaris (Di); experiment: as above; details: 100 g of the active ingredient per 10 ares;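 note: grade of growth control; 5 = at least 90%; 4 = 70 to 90%; 3 = 50 to 70%; 2 = 30 to 50%; 1 = 10 to 30%; 0 = under 10%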
From the text: as §1

[4] = tested on: common lambsquarters (Ch); experiment: as above; details: 100 g of the active ingredient per 10 ares
From the text: as §1

[5] = tested on: barnyardgrass (Ec); experiment: as above; details: 100 g of the active ingredient per 10 ares
From the text: as §1

[6] = tested on: slender amaranth (Am); experiment: as above; details: 100 g of the active ingredient per 10 ares
From the text: as §1

[7] = tested on: pale smartweed (Po); experiment: Test Example 3: herbicidal effects by upland field foliage treatment; design: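 grade of growth control; 5 = at least 90%; 4 = 70 to 90%; 3 = 50 to 70%; 2 = 30 to 50%; 1 = 10 to 30%; 0 = under 10%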
How it was run: (§2)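 Greenhouse test, upland conditions: seeds sown in sand pots of 120 cm^2 area and overlaid with soil; 2 weeks growth; leaves treated; herbicidal injury graded on day 14 after treatment by fixed standards.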

[8] = tested on: rice flatsedge (Ci); experiment: as above; design: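 grade of growth control; 5 = at least 90%; 4 = 70 to 90%; 3 = 50 to 70%; 2 = 30 to 50%; 1 = 10 to 30%; 0 = under 10%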
How it was run: as §2

[9] = tested on: common lambsquarters (Ch); experiment: as above; design: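 grade of growth control; 5 = at least 90%; 4 = 70 to 90%; 3 = 50 to 70%; 2 = 30 to 50%; 1 = 10 to 30%; 0 = under 10%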
How it was run: as §2

[10] = tested on: barnyardgrass (Ec); experiment: as above; design: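 grade of growth control; 5 = at least 90%; 4 = 70 to 90%; 3 = 50 to 70%; 2 = 30 to 50%; 1 = 10 to 30%; 0 = under 10%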
How it was run: as §2

[11] = tested on: Diaitaria ciliaris (Di); experiment: as above; design: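 grade of growth control; 5 = at least 90%; 4 = 70 to 90%; 3 = 50 to 70%; 2 = 30 to 50%; 1 = 10 to 30%; 0 = under 10%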
How it was run: as §2

[12] = tested on: slender amaranth (Am); experiment: as above; design: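 grade of growth control; 5 = at least 90%; 4 = 70 to 90%; 3 = 50 to 70%; 2 = 30 to 50%; 1 = 10 to 30%; 0 = under 10%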
How it was run: as §2

[13] = tested on: monochoria (Mo); experiment: Test Example 1: herbicidal effects by paddy field soil treatment; details: 100 g of the active ingredient per 10 ares, 21st day after the application, index 0-5 of Table 47;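 note: grade of growth control; 5 = at least 90%; 4 = 70 to 90%; 3 = 50 to 70%; 2 = 30 to 50%; 1 = 10 to 30%; 0 = under 10%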
How it was run: (§3)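 Herbicidal effect was scored against a graded standard 21 days after treatment. Seeds were sown in puddled, leveled paddy soil flooded to 3 cm depth, and the active ingredient was applied at 100 g per 10 ares before greenhouse culture.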

[14] = tested on: bulrush (Sc); experiment: as above; details: 100 g of the active ingredient per 10 ares, 21st day after the application, index 0-5 of Table 47;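 note: grade of growth control; 5 = at least 90%; 4 = 70 to 90%; 3 = 50 to 70%; 2 = 30 to 50%; 1 = 10 to 30%; 0 = under 10%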
How it was run: as §3

[15] = tested on: barnyardgrass (Ec); experiment: as above; details: 100 g of the active ingredient per 10 ares, 21st day after the application, index 0-5 of Table 47
How it was run: as §3

[16] = 21st day after the application, index 0-5 of Table 47
[17] = 100 g of the active ingredient per 10 ares, evaluated on the 14th day after treatment
[18] = evaluated on the 21st day after application
[19] = 100 g active ingredient per 10 ares, evaluated 14th day after treatment

SMILES	Herbicidal effects Po [1, 16]	Herbicidal effects Ci [2, 16]	Herbicidal effects Di [3, 16]	Herbicidal effects Ch [4, 16]	Herbicidal effects Ec [5, 16]	Herbicidal effects Am [6, 16]	Herbicidal effects Po [7, 17]	Herbicidal effects Ci [8, 17]	Herbicidal effects Ch [9, 17]	Herbicidal effects Ec [10, 17]	Herbicidal effects Di [11, 17]	Herbicidal effects Am [12, 17]	Herbicidal effects Mo [13]	Herbicidal effects Sc [14]	Herbicidal effects Ec [15]	Herbicidal effects Po [1, 18]	Herbicidal effects Ci [2, 18]	Herbicidal effects Di [3, 18]	Herbicidal effects Ch [4, 18]	Herbicidal effects Ec [5, 18]	other results
CCCCCCOC(=O)COc1cc(-c2ccc(C(F)(F)F)n(C)c2=O)c(F)cc1Cl [1-149]	5	5	5	5	5	5	5	5	5	5	5	5	5	5	5	–	–	–	–	–	–
CC=CCOc1cc(-c2ccc(C(F)(F)F)n(C)c2=O)c(F)cc1Cl [1-152]	5	5	5	5	5	5	5	5	5	5	5	5	5	5	5	–	–	–	–	–	–
COC(=O)c1cc(-c2ccc(C(F)(F)F)n(C)c2=O)c(F)cc1Cl [1-157]	5	5	5	5	5	5	5	5	5	5	5	5	5	5	5	–	–	–	–	–	–
CC(Oc1cc(-c2ccc(C(F)(F)F)n(C)c2=O)c(F)cc1Cl)C1CC1 (stereo not drawn) [1-161]	5	5	5	5	5	5	5	5	5	5	5	5	5	5	5	–	–	–	–	–	–
CCOCCOc1cc(-c2ccc(C(F)(F)F)n(C)c2=O)c(F)cc1Cl [1-163]	5	5	5	5	5	5	5	5	5	5	5	5	5	5	5	–	–	–	–	–	–
Cn1c(C(F)(F)F)ccc(-c2cc(C=NO)c(Cl)cc2F)c1=O [1-164]	5	5	5	5	5	5	5	5	5	5	5	5	5	5	5	–	–	–	–	–	–
Cn1c(C(F)(F)F)ccc(-c2cc(SC3CCCO3)c(Cl)cc2F)c1=O (stereo not drawn) [1-165]	5	5	5	5	5	5	5	5	5	5	5	5	5	5	5	–	–	–	–	–	–
CCCCOc1cc(-c2ccc(C(F)(F)F)n(C)c2=O)c(F)cc1Cl [1-166]	5	5	5	5	5	5	5	5	5	4	5	5	5	5	5	–	–	–	–	–	–
CC(C)COc1cc(-c2ccc(C(F)(F)F)n(C)c2=O)c(F)cc1Cl [1-168]	5	5	5	5	5	5	5	5	5	5	5	5	5	5	5	–	–	–	–	–	–
CC(C)OCCOc1cc(-c2ccc(C(F)(F)F)n(C)c2=O)c(F)cc1Cl [1-169]	–	–	–	–	–	–	5	5	5	5	5	5	5	5	5	5	5	5	5	5	Herbicidal effects Am [6, 18]: 5
CC(C)=CCOc1cc(-c2ccc(C(F)(F)F)n(C)c2=O)c(F)cc1Cl [1-174]	–	–	–	–	–	–	5	5	5	5	5	5	5	5	5	5	5	5	5	5	Herbicidal effects Am [6, 18]: 5
CC#CCOc1cc(-c2ccc(C(F)(F)F)n(C)c2=O)c(F)cc1Cl [1-175]	–	–	–	–	–	–	5	5	5	5	5	5	5	5	5	5	5	5	5	5	Herbicidal effects Am [6, 18]: 5
C=CCOc1cc(Cl)cc(F)c1-c1ccc(C(F)(F)F)n(C)c1=O [1′-3]	–	–	–	–	–	–	–	–	–	–	–	–	5	4	5	5	5	5	5	5	Herbicidal effects Am [6, 18]: 5; Herbicidal effects Po [7, 19]: 5; Herbicidal effects Ci [8, 19]: 5; Herbicidal effects Ch [9, 19]: 5; Herbicidal effects Ec [10, 19]: 5; Herbicidal effects Di [11, 19]: 5; Herbicidal effects Am [12, 19]: 5
